Several values for one entry are separate records, joined by “and”; a condition that tells them apart may be missing. Equal values may be shown once. Toxic doses and inconclusive results are not listed.
Tested on: L1210 leukemia ip in BDF1 mice, survival T/C
Assay: NCI In Vivo Anticancer Drug Screen. Data for tumor model L1210 Leukemia (intraperitoneal) in B6D2F1 (BDF1) mice
Conditions: endpoint: mean survival time, higher = longer survival
Method in brief: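 Read-out is survival time, reported as the treated-group measurement over the vehicle-control measurement.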

[1] = dose: 100.0 mg/kg/injection, schedule: Q01DX009 (ip), vehicle: Klucel (hydroxypropylcellulose) (HPC)
[2] = dose: 200.0 mg/kg/injection, schedule: Q01DX009 (ip), vehicle: Klucel (hydroxypropylcellulose) (HPC)
[3] = dose: 400.0 mg/kg/injection, schedule: Q01DX009 (ip), vehicle: Klucel (hydroxypropylcellulose) (HPC)
[4] = dose: 100.0 mg/kg/injection, schedule: Q01DX001 (ip), vehicle: other
[5] = dose: 100.0 mg/kg/injection, schedule: Q04DX003 (ip), vehicle: saline with Tween-80
[6] = dose: 200.0 mg/kg/injection, schedule: Q01DX001 (ip), vehicle: other
[7] = dose: 200.0 mg/kg/injection, schedule: Q04DX003 (ip), vehicle: saline with Tween-80
[8] = dose: 400.0 mg/kg/injection, schedule: Q01DX001 (ip), vehicle: other
[9] = dose: 400.0 mg/kg/injection, schedule: Q04DX003 (ip), vehicle: saline with Tween-80
[10] = dose: 200.0 mg/kg/injection, schedule: Q04DX002 (ip), vehicle: Klucel (hydroxypropylcellulose) (HPC)
[11] = dose: 400.0 mg/kg/injection, schedule: Q04DX002 (ip), vehicle: Klucel (hydroxypropylcellulose) (HPC)
[12] = dose: 100.0 mg/kg/injection, schedule: Q01DX009 (ip), vehicle: saline with Tween-80
[13] = dose: 100.0 mg/kg/injection, schedule: Q04DX003 (ip), vehicle: saline
[14] = dose: 200.0 mg/kg/injection, schedule: Q04DX003 (ip), vehicle: saline
[15] = dose: 400.0 mg/kg/injection, schedule: Q04DX003 (ip), vehicle: saline
[16] = dose: 100.0 mg/kg/injection, schedule: Q01DX001 (ip), vehicle: saline
[17] = dose: 100.0 mg/kg/injection, schedule: Q01DX009 (ip), vehicle: saline
[18] = dose: 200.0 mg/kg/injection, schedule: Q01DX001 (ip), vehicle: saline
[19] = dose: 200.0 mg/kg/injection, schedule: Q01DX009 (ip), vehicle: saline
[20] = dose: 400.0 mg/kg/injection, schedule: Q01DX001 (ip), vehicle: saline
[21] = dose: 400.0 mg/kg/injection, schedule: Q01DX009 (ip), vehicle: saline

SMILES: NC(=O)Nc1cccc(C(=O)O)c1
- T/C [1]: 89 % of control
- T/C (dose: 100.0 mg/kg/injection, schedule: Q04DX003 (ip), vehicle: Klucel (hydroxypropylcellulose) (HPC)): 92 % of control
- T/C [2]: 87 % of control
- T/C (dose: 200.0 mg/kg/injection, schedule: Q04DX003 (ip), vehicle: Klucel (hydroxypropylcellulose) (HPC)): 92 % of control
- T/C [3]: 87 % of control
- T/C (dose: 400.0 mg/kg/injection, schedule: Q04DX003 (ip), vehicle: Klucel (hydroxypropylcellulose) (HPC)): 96 % of control

SMILES: NC(=O)NN=C1CCCCCCCCCCC1
- T/C [4]: 95 % of control
- T/C [5]: 97 % of control
- T/C [6]: 95 % of control
- T/C [7]: 105 % of control
- T/C [8]: 103 % of control
- T/C [9]: 94 % of control

SMILES: COC(=O)[C@@H]1[C@H](O)[C@H](C)[C@H](O)[C@H](C)/C=C\C=C(C)C(=O)Nc2c(C)c(OC(C)=O)c3c(c2O)C(=O)C(C)=C2OCOC(=C23)C(C)=C[C@@](C)(O)[C@H](O)[C@@H](C)[C@H]1OC(C)=O
- T/C (dose: 100.0 mg/kg/injection, schedule: Q04DX002 (ip), vehicle: Klucel (hydroxypropylcellulose) (HPC)): 96 % of control
- T/C [10]: 101 % of control
- T/C [11]: 101 % of control

SMILES: CCC(C#N)=C1CCCCC1
- T/C (dose: 25.0 mg/kg/injection, schedule: Q01DX009 (ip), vehicle: saline with Tween-80): 91 % of control
- T/C (dose: 50.0 mg/kg/injection, schedule: Q01DX009 (ip), vehicle: saline with Tween-80): 99 % of control
- T/C [12]: 97 % of control
- T/C [13]: 100 % of control

SMILES: CCOC(=O)/C(C#N)=C\c1cc(=O)c(OC)co1
- T/C [13]: 98 % of control
- T/C [14]: 104 % of control
- T/C [15]: 102 % of control

SMILES: Nc1ncnc2c1ncn2C1CC(O)C(CO)O1 (configuration not stated)
- T/C [5]: 101 % of control
- T/C [13]: 98 % of control
- T/C [7]: 98 % of control
- T/C [14]: 104 % of control
- T/C [9]: 98 % of control
- T/C [15]: 93 % of control
- T/C (dose: 440.0 mg/kg/injection, schedule: Q03HX024 (ip), vehicle: saline with Tween-80): 105 % of control
- T/C (dose: 660.0 mg/kg/injection, schedule: Q03HX024 (ip), vehicle: saline with Tween-80): 110 % of control
- T/C (dose: 1000.0 mg/kg/injection, schedule: Q03HX024 (ip), vehicle: saline with Tween-80): 104 % of control

SMILES: CCOC(=O)C1CC[N+](=c2cc(-c3ccc(Cl)cc3)ss2)CC1 (configuration not stated)
- T/C [13]: 95 % of control
- T/C [14]: 96 % of control
- T/C [15]: 101 % of control

SMILES: CC1(C)Cc2cccc(Br)c2O1
- T/C [4]: 98 % of control
- T/C [6]: 103 % of control
- T/C [8]: 97 % of control

SMILES: N=C(N)SCCN
- T/C [16]: 97 % of control
- T/C [17]: 103 % of control
- T/C [18]: 90 % of control
- T/C [19]: 111 % of control
- T/C [20]: 118 % of control

SMILES: OC(c1ccccc1)(c1ccccc1)C1CCCCC1=C(c1ccccc1)c1ccccc1 (configuration not stated)
- T/C [16]: 88 % of control
- T/C [17]: 86 % of control
- T/C [13]: 96 % of control
- T/C [18]: 93 % of control
- T/C [14]: 94 % of control
- T/C [20]: 89 % of control
- T/C [21]: 86 % of control
- T/C [15]: 96 % of control

SMILES: O=C(Nc1ccc(F)c(Cl)c1)Oc1ccc(Br)cc1Br
- T/C (dose: 100.0 mg/kg/injection, schedule: Q04DX002 (ip), vehicle: saline with Tween-80): 100 % of control
- T/C (dose: 200.0 mg/kg/injection, schedule: Q04DX002 (ip), vehicle: saline with Tween-80): 107 % of control
- T/C (dose: 400.0 mg/kg/injection, schedule: Q04DX002 (ip), vehicle: saline with Tween-80): 100 % of control

SMILES: O=C1C(NCC(O)CO)=C(N2CC2)C(=O)C(NCC(O)CO)=C1N1CC1 (configuration not stated)
- T/C (dose: 0.12 mg/kg/injection, schedule: Q04DX003 (ip), vehicle: saline): 106 % of control
- T/C (dose: 0.25 mg/kg/injection, schedule: Q01DX009 (ip), vehicle: saline): 119 % of control and 120 % of control
- T/C (dose: 0.25 mg/kg/injection, schedule: Q04DX003 (ip), vehicle: saline): 106 % of control
- T/C (dose: 0.5 mg/kg/injection, schedule: Q01DX009 (ip), vehicle: saline): 120 % of control and 121 % of control
- T/C (dose: 0.5 mg/kg/injection, schedule: Q04DX003 (ip), vehicle: saline): 112 % of control
- T/C (dose: 1.0 mg/kg/injection, schedule: Q01DX009 (ip), vehicle: saline): 156 % of control
- T/C (dose: 1.0 mg/kg/injection, schedule: Q04DX003 (ip), vehicle: saline): 104 % of control
- T/C (dose: 2.0 mg/kg/injection, schedule: Q01DX001 (ip), vehicle: saline): 189 % of control
- T/C (dose: 2.0 mg/kg/injection, schedule: Q01DX009 (ip), vehicle: saline): 216 % of control and 233 % of control
- T/C (dose: 2.0 mg/kg/injection, schedule: Q04DX003 (ip), vehicle: saline): 161 % of control
- T/C (dose: 4.0 mg/kg/injection, schedule: Q01DX001 (ip), vehicle: saline): 153 % of control
- T/C (dose: 4.0 mg/kg/injection, schedule: Q01DX009 (ip), vehicle: saline): 199 % of control and 306 % of control
- T/C (dose: 4.0 mg/kg/injection, schedule: Q04DX003 (ip), vehicle: saline): 173 % of control and 190 % of control
- T/C (dose: 8.0 mg/kg/injection, schedule: Q01DX009 (ip), vehicle: saline): 98 % of control and 102 % of control
- T/C (dose: 8.0 mg/kg/injection, schedule: Q04DX003 (ip), vehicle: saline): 179 % of control

SMILES: Nc1nc(I)c2[nH]cnc2n1
- T/C (dose: 25.0 mg/kg/injection, schedule: Q01DX Z (ip), vehicle: methylcellulose (MC)): 95 % of control
- T/C (dose: 50.0 mg/kg/injection, schedule: Q01DX Z (ip), vehicle: methylcellulose (MC)): 103 % of control
- T/C (dose: 100.0 mg/kg/injection, schedule: Q01DX Z (ip), vehicle: methylcellulose (MC)): 108 % of control

SMILES: Oc1ccccc1/C=N/Nc1c2ccccc2nc2ccccc12
- T/C [16]: 103 % of control
- T/C [20]: 93 % of control

SMILES: O=C(Nc1ccc(Cl)c([N+](=O)[O-])c1)Nc1nnc(Br)s1
- T/C [1]: 104 % of control
- T/C [2]: 90 % of control
- T/C [3]: 97 % of control

SMILES: COc1ccccc1N=Cc1ccccc1O.[Co]
- T/C [4]: 94 % of control
- T/C [6]: 94 % of control
- T/C [8]: 93 % of control

SMILES: CNCC(O)c1ccccc1 (configuration not stated)
- T/C [16]: 96 % of control
- T/C [13]: 94 % of control
- T/C [18]: 97 % of control
- T/C [14]: 96 % of control
- T/C [20]: 92 % of control
- T/C [15]: 100 % of control

SMILES: CCCC(CC)NC(N)=O (configuration not stated)
- T/C [5]: 107 % of control
- T/C [7]: 95 % of control
- T/C [9]: 109 % of control

SMILES: CCCCCCCCCCCCCCCCCCNC(=O)Nc1nccs1
- T/C [1]: 96 % of control
- T/C (dose: 150.0 mg/kg/injection, schedule: Q01DX009 (ip), vehicle: Klucel (hydroxypropylcellulose) (HPC)): 86 % of control
- T/C [10]: 94 % of control
- T/C (dose: 225.0 mg/kg/injection, schedule: Q01DX009 (ip), vehicle: Klucel (hydroxypropylcellulose) (HPC)): 91 % of control
- T/C (dose: 335.0 mg/kg/injection, schedule: Q01DX009 (ip), vehicle: Klucel (hydroxypropylcellulose) (HPC)): 96 % of control
- T/C [11]: 87 % of control

SMILES: COC(=O)C(COS(=O)(=O)c1ccccc1)NC(=O)OCc1ccccc1 (configuration not stated)
- T/C [17]: 100 % of control
- T/C [13]: 92 % of control
- T/C [19]: 98 % of control
- T/C [14]: 97 % of control
- T/C [21]: 96 % of control
- T/C [15]: 95 % of control

SMILES: N#CCCCOc1cccc([N+](=O)[O-])c1
- T/C [12]: 93 % of control
- T/C (dose: 200.0 mg/kg/injection, schedule: Q01DX009 (ip), vehicle: saline with Tween-80): 102 % of control

SMILES: CC(O)CN(c1ccccc1)c1ccccc1 (configuration not stated)
- T/C (dose: 100.0 mg/kg/injection, schedule: Q01DX001 (ip), vehicle: carboxymethylcellulose (CMC)): 101 % of control
- T/C (dose: 200.0 mg/kg/injection, schedule: Q01DX001 (ip), vehicle: carboxymethylcellulose (CMC)): 92 % of control
- T/C (dose: 400.0 mg/kg/injection, schedule: Q01DX001 (ip), vehicle: carboxymethylcellulose (CMC)): 95 % of control

SMILES: CC/C(C)=N/NS(C)(=O)=O
- T/C (dose: 75.0 mg/kg/injection, schedule: Q01DX001 (ip), vehicle: other): 103 % of control
- T/C (dose: 150.0 mg/kg/injection, schedule: Q01DX001 (ip), vehicle: other): 97 % of control
